These results are taken from PubChem BioAssay AID1996.

Converted amounts (≈) assume the structure as drawn. Some results are limits rather than exact numbers.

For the data set the following is noted: buffer; pH 7.4; 200.0 µM.
Take `CCOc1ccc(C2=CSC3=NCCN23)cc1[N+](=O)[O-]`: the kinetic solubility (commonly the concentration staying in solution when a stock, usually in DMSO, is diluted into the medium) turned out to be 36.2 µg/mL (≈ 124 µM).
To `N#CCSc1ccc(-c2nc3ccccc3[nH]2)cn1` belongs 17 µg/mL (≈ 63.8 µM).
Then `CC(C)N1CCN(Cc2cnc(-c3ccccc3)s2)CC1CCO` (stereo unspecified), with above 51.8 µg/mL.
The molecule `Cc1cc(OCCCCCn2ccnc2)cc(C)c1Cl.Cl` gave a solubility (kinetic) of 23.1 µg/mL.
Then `CCC(=O)Nc1ccc(NC(=O)CCc2ccccc2)cn1`, with 44.5 µg/mL (≈ 150 µM); and `Cc1ccc(C)c(OCCCC(=O)NC2CCCCC2)c1`, with 3 µg/mL (≈ 10.4 µM); and `Cc1ccc(S(=O)(=O)N2CCOCC2)cc1NCC(=O)Nc1ccc(OC(F)(F)F)cc1`, with 3 µg/mL (≈ 6.34 µM).
For the molecule `Cc1cc(Cl)cc(C)c1OCCn1ccnc1.Cl`, the kinetic solubility is above 43.1 µg/mL.
`Cc1ccc(C)c(OCC(=O)O/N=C(\N)c2cccc([N+](=O)[O-])c2)c1` gave a kinetic solubility of 1.2 µg/mL (≈ 3.5 µM).
Then `CNc1nc(NCc2ccccc2)c2ccccc2n1.Cl`, with 37 µg/mL; and `O=C(c1cc2cc(Cl)ccc2oc1=O)N1CCCCCCC1`, with 7.6 µg/mL (≈ 23.8 µM); and `Cc1ccc(C(=O)OCC(=O)NC(C)C2CC3CCC2C3)cc1N` (stereo unspecified), with above 49.6 µg/mL.
Molecule `CCOC(=O)C1=C(N)Oc2cc(O)ccc2C1c1ccc(C)cc1` (stereo unspecified) displayed a kinetic solubility below 0.7 µg/mL.
`C=CCOC(=O)C1=C(C)NC(=O)NC1c1ccc2c(c1)OCO2` (stereo unspecified) gave a kinetic solubility of 43.4 µg/mL (≈ 137 µM).
Then `CNS(=O)(=O)c1cccc(C(=O)OCC(=O)Nc2ccc3ccccc3c2)c1`, with 2.8 µg/mL (≈ 7.03 µM).
As to `O=C(c1cc(-c2ccncc2)nc2ccccc12)N1CCN(Cc2ccccc2)CC1`, the kinetic solubility is above 61.3 µg/mL.
Then `Cc1ccc(NC(=O)c2ccc3c(c2)OCO3)cc1Cl`, with 0.9 µg/mL (≈ 3.11 µM).
In turn, `COc1cc(/C=C(\C#N)C(N)=O)ccc1OCc1c(C)no[n+]1[O-]` showed a solubility (kinetic) of 14.6 µg/mL (≈ 44.2 µM).
To `COC(=O)/C=C1\SC(N)=NC1=O` belongs above 27.9 µg/mL.
Then `CNC(=O)c1cc(OCC(F)(F)F)ccc1OCC(F)(F)F`, with 49.6 µg/mL (≈ 150 µM); and `O=C(c1cc2ccccc2cc1O)N1CCCC(C(F)(F)F)C1` (stereo unspecified), with above 48.5 µg/mL.
To `C=C(C)COc1ccc(C2NC(=O)c3ccccc3O2)cc1OCC` (stereo unspecified) belongs 1.9 µg/mL (≈ 5.6 µM).
For `COCCCNC(=O)c1cc(-c2cccnc2)nc2ccccc12`, the kinetic solubility was above 48.2 µg/mL.
Then `COc1ccccc1NC(=O)NCCN1CCCCC1`, with above 41.6 µg/mL; and `CN=C1S/C(=C\c2c(OC)cc(OC)cc2OC)C(=O)N1C`, with 1.1 µg/mL (≈ 3.41 µM).
With `Cc1cnc(NC(=O)C2CCC(C(C)(C)C)CC2)s1` (stereo unspecified), the solubility (kinetic) is below 0.3 µg/mL.
Then `Cc1c(Cl)cccc1NC(=S)N1CCCCCC1`, with 29.3 µg/mL (≈ 104 µM); and `CCC(C(=O)Nc1ccc(C(=O)N2CCCC2)cc1)c1ccccc1` (stereo unspecified), with above 50.5 µg/mL; and `CC(C)c1nc(NCCO)c(C#N)c2c1CCCC2`, with 9 µg/mL (≈ 34.7 µM).
For `Cc1cccc2c1NC(=O)C2(O)N1CCCC(C)C1` (stereo unspecified), the solubility (kinetic) is above 39.1 µg/mL.
`O=C(O)C1CCCCC1C(=O)NCc1ccccn1` (stereo unspecified) came in with a kinetic solubility above 39.3 µg/mL.
`CC(=O)Nc1ccc(NC(=O)c2c([N+](=O)[O-])cnn2C)cc1` gave a kinetic solubility above 45.5 µg/mL.
To `Nc1ccc2nc(COc3ccccc3)[nH]c2c1` belongs 12.4 µg/mL (≈ 51.8 µM).
To `CCOC(=O)NC(=S)Nc1c(C)n(C)n(-c2ccccc2)c1=O` belongs above 50.2 µg/mL; to `CCOc1ccc2oc(C(=O)NCC(C)(C)CN(C)C)c(C)c2c1.Cl`, 48.4 µg/mL.
To `[NH-]S(=O)(=O)c1ccccc1.[Na+]` belongs above 26.9 µg/mL; to `O=[N+]([O-])c1cccc(-c2nc3ccc([N+](=O)[O-])cc3[nH]2)c1`, 1.2 µg/mL (≈ 4.22 µM).
`COc1cc2ccccc2cc1C(=O)NC1CCC(C)CC1` (stereo unspecified) showed a kinetic solubility of 5 µg/mL (≈ 16.8 µM).
As for `Cc1ccc(Nc2nc(N)nc(CCl)n2)c(C)c1`, the solubility (kinetic) was above 39.6 µg/mL.
The molecule `CC(C)(C)OC(=O)N1CCC(CNC(=O)c2ccccc2)CC1` showed a kinetic solubility above 47.8 µg/mL.
To `Cc1c(C=O)c2ccccc2n1CCOc1ccccc1` belongs 6.2 µg/mL (≈ 22.2 µM).
